Test: Evaluation of solubility of acid generator in PGMEA
Details: maximal concentration dissolved in propylene glycol monomethyl ether acetate (PGMEA)

Row | SMILES | Solvent solubility of acid generator [% by mass]
1 | CCCCC(Oc1cc2c3c(cccc3c1)C(=O)N(OS(=O)(=O)C(F)(F)C(=O)OC)C2=O)C(=O)OC(C)(C)C (stereo not drawn) [PAG-17] | 15
2 | CCCCC(Oc1cc2c3c(cccc3c1)C(=O)N(OS(=O)(=O)C(F)(F)C(=O)OCCC13CC4CC(CC(C4)C1)C3)C2=O)C(=O)OC(C)(C)C (stereo not drawn) [PAG-19] | 15
3 | CCCCC(Oc1cc2c3c(cccc3c1)C(=O)N(OS(=O)(=O)C(F)(F)C(=O)OC)C2=O)C(=O)O (stereo not drawn) [PAG-13] | 10
4 | CCCCc1ccc2c3c(cccc13)C(=O)N(OS(=O)(=O)C(F)(F)C(=O)OC)C2=O [PAG-1] | > 20
5 | CCCCC(CC)COC(=O)CSc1ccc2c3c(cccc13)C(=O)N(OS(=O)(=O)C(F)(F)C(=O)OC)C2=O (stereo not drawn) [PAG-9] | > 20
6 | CC(C)c1cc2c3c(c(C(C)C)ccc3c1)C(=O)N(OS(=O)(=O)C(F)(F)C(=O)OCCC13CC4CC(CC(C4)C1)C3)C2=O [PAG-31] | > 20
7 | CCCCC(Oc1cc2c3c(cccc3c1)C(=O)N(OS(=O)(=O)C(F)(F)C(=O)OCCC1CCCCC1)C2=O)C(=O)O (stereo not drawn) [PAG-14] | 10
8 | CCCCC(CC)COC(=O)CSc1ccc2c3c(cccc13)C(=O)N(OS(=O)(=O)C(F)(F)C(=O)OCCC1CCCCC1)C2=O (stereo not drawn) [PAG-10] | > 20
9 | CCCCC(Oc1cc2c3c(cccc3c1)C(=O)N(OS(=O)(=O)C(F)(F)C(=O)OCCC13CC4CC(CC(C4)C1)C3)C2=O)C(=O)O (stereo not drawn) [PAG-15] | 10
10 | O=C1c2cccc3cccc(c23)C(=O)N1OS(=O)(=O)C(F)(F)C(=O)OC1C2CC3OS(=O)(=O)C1C3C2 (stereo not drawn) [PAG-8] | < 1
11 | COC(=O)C(F)(F)S(=O)(=O)ON1C(=O)c2cccc3cccc(c23)C1=O [PAG-7] | 5
12 | O=C1c2cccc3cccc(c23)C(=O)N1OS(=O)(=O)C(F)(F)F [PAG-5, reference compound] | < 1
13 | CCCCC(CC)COC(=O)CSc1ccc2c3c(cccc13)C(=O)N(OS(=O)(=O)C(F)(F)C(=O)OC1C3CC4OS(=O)(=O)C1C4C3)C2=O (stereo not drawn) [PAG-12] | > 20
14 | COC(=O)C(F)(F)S(=O)(=O)ON1C(=O)c2cc(C(C)C)cc3ccc(C(C)C)c(c23)C1=O [PAG-29] | 10
15 | CC(C)c1cc2c3c(c(C(C)C)ccc3c1)C(=O)N(OS(=O)(=O)C(F)(F)C(=O)OCCC1CCCCC1)C2=O [PAG-30] | > 20
16 | CCCCc1ccc2c3c(cccc13)C(=O)N(OS(=O)(=O)C(F)(F)C(=O)OCCC1CCCCC1)C2=O [PAG-2] | > 20
17 | CCCCc1ccc2c3c(cccc13)C(=O)N(OS(=O)(=O)C(F)(F)F)C2=O [PAG-6, reference compound] | > 20
18 | CC(C)c1cc2c3c(c(C(C)C)ccc3c1)C(=O)N(OS(=O)(=O)C(F)(F)C(=O)OC1C3CC4OS(=O)(=O)C1C4C3)C2=O (stereo not drawn) [PAG-32] | 10
19 | CCCCC(Oc1cc2c3c(cccc3c1)C(=O)N(OS(=O)(=O)C(F)(F)C(=O)OCCC1CCCCC1)C2=O)C(=O)OC(C)(C)C (stereo not drawn) [PAG-18] | 15
20 | CCCCC(CC)COC(=O)CSc1ccc2c3c(cccc13)C(=O)N(OS(=O)(=O)C(F)(F)C(=O)OCCC13CC4CC(CC(C4)C1)C3)C2=O (stereo not drawn) [PAG-11] | > 20
21 | CCCCC(Oc1cc2c3c(cccc3c1)C(=O)N(OS(=O)(=O)C(F)(F)C(=O)OC1C3CC4OS(=O)(=O)C1C4C3)C2=O)C(=O)O (stereo not drawn) [PAG-16] | 10

Source: patent US20220283500A1, “CHEMICALLY AMPLIFIED POSITIVE-TYPE PHOTOSENSITIVE RESIN COMPOSITION, PHOTOSENSITIVE DRY FILM, PRODUCTION METHOD FOR PHOTOSENSITIVE DRY FILM, PRODUCTION METHOD FOR PATTERNED RESIST FILM, COMPOUND, PHOTO-ACID GENERATOR, AND PRODUCTION METHOD FOR N-ORGANOSULFONYLOXY COMPOUND” (TOKYO OHKA KOGYO CO., LTD., priority 2019, published 2022)
